Earlier results on two compounds are cited in US20240285565A1, “USE OF (S)-3-AMINO-4-(DIFLUOROMETHYLENYL)CYCLOPENT-1-ENE-1-CARBOXYLIC ACID IN THE TREATMENT OF DIABETES AND PRE-DIABETES” (Ovid Therapeutics Inc., priority 2023, published 2024).

One series deals with T1, OAT (Homo sapiens, UniProt P04181).
T1 sequence (P04181 26-439): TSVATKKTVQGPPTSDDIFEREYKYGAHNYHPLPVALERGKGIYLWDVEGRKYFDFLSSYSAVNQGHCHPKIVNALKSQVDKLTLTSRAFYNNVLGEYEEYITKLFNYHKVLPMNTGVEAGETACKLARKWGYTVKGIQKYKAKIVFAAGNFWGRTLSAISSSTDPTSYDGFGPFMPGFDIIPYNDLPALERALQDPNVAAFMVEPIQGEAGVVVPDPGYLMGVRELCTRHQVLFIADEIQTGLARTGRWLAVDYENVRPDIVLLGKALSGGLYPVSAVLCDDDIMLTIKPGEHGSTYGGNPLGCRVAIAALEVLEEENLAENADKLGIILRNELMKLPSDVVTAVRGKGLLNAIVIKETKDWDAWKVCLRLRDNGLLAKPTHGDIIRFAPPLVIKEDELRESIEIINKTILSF

Series [1] concerns the target alanine aminotransferase (Ala-AT).
The target in series [2] is aspartate aminotransferase (Asp-AT).

As for `N[C@H]1C=C(C(=O)O)CC1=C(F)F` [(S)-3-amino-4-(difluoromethylenyl)cyclopent-1-ene-1-carboxylic acid], the “Kinact/K1 (OAT)” value on OAT is 127 M⁻¹ s⁻¹. The “times more efficient an inactivator of OAT than CPP-115” value at OAT (ratio of Kinact/K1 relative to CPP-115) was 9.0 times. Moreover, the IC50 in series [1] (reversible inhibition) and in series [2] (reversible inhibition) was over 4 mM each time.

As for `N[C@H]1C[C@@H](C(=O)O)CC1=C(F)F` [CPP-115, (1S,3S)-3-amino+difluoromethylenyl-1-cyclopentanoic acid, reference compound], the Ki on OAT (read-out: K1 (OAT)) was 0.116 mM. For the same compound, the “inactivation or inhibition of Ala-AT” value in series [1] (result in words) was “not to inactivate or inhibit”. In series [2] (result in words), the “inactivation or inhibition of Asp-AT” value is given as “not to inactivate or inhibit”.

The IC50 is the concentration that inhibits the measured activity by half.
